Reference: ChEMBL document CHEMBL5375980, “PSMA-targeted small-molecule drug-conjugates with valine-citrulline and phosphoramidate cleavable linkers” (Bioorg Med Chem Lett, 2024)
Active and inactive are the calls of the source. The rule behind the calls is not given here. Where a SMILES comes first, the peptide text is derived from it. [ ]: non-standard residue; d: D form. The star is where a group is joined. Dolaproine = CO[C@@H]([C@@H]1CCCN1)[C@@H](C)C(=O)O; Dil = CC[C@H](C)[C@H](NC)[C@@H](CC(=O)O)OC; X1 = C[C@@H](N*)[C@@H](O)c1ccccc1; NMeV = CN[C@H](C(=O)O)C(C)C

Tests used:
[1] = Anticancer activity against PMSA positive human PC3-PIP cells assessed as cell viability at 10 nM incubated for 72 hrs by CellTiter-Glo Luminescent Cell Viability assay relative to control; assay type: functional; conditions: read-out: Activity
PC-3 [2] = test: Anticancer activity against PMSA negative human PC-3 cells assessed as cell viability at 10 nM incubated for 72 hrs by CellTiter-Glo Luminescent Cell Viability assay relative to control; assay type: functional; conditions: read-out: Activity
LNCaP C4-2B [3] = test: Anticancer activity against PSMA positive human LNCaP C4-2B cells assessed as cell viability at 10 nM incubated for 72 hrs by CellTiter-Glo Luminescent Cell Viability assay relative to control; assay type: functional; conditions: read-out: Activity
PC3-PIP cell = test: Anticancer activity against PSMA positive human PC3-PIP cells assessed as reduction in cell viability incubated for 72 hrs by CellTiter-Glo Luminescent Cell Viability assay; assay type: functional, cell-based; conditions: dose 4-100 µM
LNCaP C4-2B [4] = test: Anticancer activity against PSMA positive human LNCaP C4-2B cells assessed as cell viability at 100 nM incubated for 72 hrs by CellTiter-Glo Luminescent Cell Viability assay relative to control; assay type: functional; conditions: read-out: Activity
PC-3 [5] = test: Anticancer activity against PMSA negative human PC-3 cells assessed as reduction in cell viability at 10 nM incubated for 72 hrs by CellTiter-Glo Luminescent Cell Viability assay; assay type: functional, cell-based
LNCaP C4-2B [6] = test: Anticancer activity against PSMA positive human LNCaP C4-2B cells assessed as reduction in cell viability incubated for 72 hrs by CellTiter-Glo Luminescent Cell Viability assay; assay type: functional, cell-based; conditions: dose […]
LNCaP C4-2B [7] = test: Anticancer activity against PSMA positive human LNCaP C4-2B cells assessed as cell viability at 20 nM incubated for 72 hrs by CellTiter-Glo Luminescent Cell Viability assay relative to control; assay type: functional; conditions: read-out: Activity
[8] = Anticancer activity against PSMA positive human PC3-PIP cells assessed as cell viability at 100 nM incubated for 72 hrs by CellTiter-Glo Luminescent Cell Viability assay relative to control; assay type: functional; conditions: read-out: Activity
[9] = Anticancer activity against PSMA positive human PC3-PIP cells assessed as cell viability at 4 nM incubated for 72 hrs by CellTiter-Glo Luminescent Cell Viability assay relative to control; assay type: functional; conditions: read-out: Activity
LNCaP C4-2B [10] = test: Anticancer activity against PSMA positive human LNCaP C4-2B cells assessed as reduction in cell viability at 10 nM incubated for 72 hrs by CellTiter-Glo Luminescent Cell Viability assay; assay type: functional, cell-based

Row | SMILES | viability at 0.01 µM [1] | viability at 0.01 µM (PC-3 [2]) | viability at 0.01 µM (LNCaP C4-2B [3]) | Activity (PC3-PIP cell) | viability at 0.1 µM (LNCaP C4-2B [4]) | Activity (PC-3 [5]) | Activity (LNCaP C4-2B [6]) | viability at 0.02 µM (LNCaP C4-2B [7]) | viability at 0.1 µM [8] | viability at 0.004 µM [9] | Activity (LNCaP C4-2B [10])
1 | CC[C@H](C)[C@@H]([C@@H](CC(=O)N1CCC[C@H]1[C@H](OC)[C@@H](C)C(=O)N[C@H](C)[C@@H](O)c1ccccc1)OC)N(C)C(=O)[C@@H](NC(=O)[C@@H](NC)C(C)C)C(C)C (H-[NMeV]V[Dil][Dolaproine]-X1) | < 50% | < 50% | < 50% | – | – | – | – | – | – | – | –
2 | CC[C@H](C)[C@@H]([C@@H](CC(=O)N1CCC[C@H]1[C@H](OC)[C@@H](C)C(=O)N[C@H](C)[C@@H](O)c1ccccc1)OC)N(C)C(=O)[C@@H](NC(=O)[C@H](C(C)C)N(C)C(=O)OCc1ccc(OC(=O)N(C)CCN(C)P(=O)(O)OCC[C@H](NC(=O)c2ccc(Cn3nnc4c3-c3ccccc3N(C(=O)CCC(=O)NCCOCCOCCOCCOCCC(=O)NCCCCCC(=O)N[C@@H](CCC(=O)N[C@@H](CCCOP(=O)(O)N[C@@H](CCC(=O)O)C(=O)O)C(=O)O)C(=O)O)c3ccccc3-4)cc2)C(=O)O)cc1)C(C)C | 47.2% | – | 58.8% | Dose-Dependent Effect | 7.44% | inactive | Dose-Dependent Effect | 28.7% | – | – | –
3 | CC[C@H](C)[C@@H]([C@@H](CC(=O)N1CCC[C@H]1[C@H](OC)[C@@H](C)C(=O)N[C@H](C)[C@@H](O)c1ccccc1)OC)N(C)C(=O)[C@@H](NC(=O)[C@H](C(C)C)N(C)C(=O)OCc1ccc(NC(=O)[C@H](CCCNC(N)=O)NC(=O)[C@@H](NC(=O)c2ccc(Cn3nnc4c3-c3ccccc3N(C(=O)CCC(=O)NCCOCCOCCOCCOCCC(=O)NCCCCCC(=O)N[C@@H](CCC(=O)N[C@@H](CCCOP(=O)(O)N[C@@H](CCC(=O)O)C(=O)O)C(=O)O)C(=O)O)c3ccccc3-4)cc2)C(C)C)cc1)C(C)C | < 50% | – | – | – | – | inactive | – | – | 25.8% | 80.9% | inactive
